Data on 64 molecules can be found in the OPERA property sets (Mansouri et al. 2018).

Values after ≈ are worked out from the molar mass of the structure shown.

Details in one series: not given
As usually defined, the logP is the decadic logarithm of the partition coefficient of the neutral form, usually between octanol and water. Low readings indicate a more hydrophilic compound, high ones a more lipophilic compound. In turn, `Nc1ncnc2c1ncn2C1OC2COP(=O)(OCc3ccccc3)OC2C1O` (stereo not given) had a logP of 1.15.

As for `Cc1nc(NCCCO)c(C#N)cc1-c1ccccc1`, the logP was determined as 2.72. For `O=C(OCc1ccccc1)c1ccc(O)cc1`, the logP was determined as 3.56. Turning to `CC[C@H](C)C(=O)O[C@H]1C[C@H](O)C=C2C=C[C@H](C)[C@H](CC[C@@H](O)C[C@@H](O)CC(=O)[O-])[C@H]21.[Na+]`, the logP is -0.23. `ClCCCBr` showed a logP of 2.18. Molecule `NS(=O)(=O)c1nn2c(=Nc3ccccc3)snc2s1` came in with a logP of 2.57. With `CC(C)OC(=O)c1cc(=O)[nH]c(=O)[nH]1`, the logP came out at 0.81. The molecule `ClC1=C(Cl)C2(Cl)C3C(Cl)C(Cl)CC3C1(Cl)C2(Cl)Cl` (stereo not given) displayed a log partition coefficient (logP) of 6.16. For `CC(=O)n1ncc2c(O)ncnc21`, the logP is -0.35.

As to `O=C(c1ccccc1)n1ncc2c(=O)[nH]cnc21`, the logP stood at 1.2. Take `CN1CC=C(c2ccc(N)cc2)CC1`: the logP was 1.48.

Consider `CN(C)C(=O)Nc1ccc(Oc2ccc(Cl)cc2)cc1`, for which the logP turned out to be 3.7. Broadly, the solubility is how much of the substance goes into solution per volume. Read a low solubility as a poorly soluble substance. With `O=C(O)c1cc[n+]([O-])cc1`, the solubility is 79.1 mM (≈ 11000 µg/mL).

For the molecule `O=C(OCn1ncc2c(=O)[nH]cnc21)c1cccnc1`, the lipophilicity (logP) turned out to be 0.27. Molecule `CC(O)COC(=O)[C@@H](N)Cc1ccc(O)c(O)c1` (stereo not given in full) had a logP of -0.49. Same read-out and setting: for `COc1cc(Cl)c(Cl)c(Cl)c1` the value was 4.22. As to `Cc1c(Cl)ccc(Cc2c(Cl)cccc2Cl)c1Cl`, the logP is 7.2. In turn, `FC(F)(F)c1cccc(Cn2cncn2)c1` had a logP of 1.74. Molecule `CC(C)NCc1ccccc1` came in with a logP of 1.83.

In turn, `COC(=O)C(C)Oc1ccc(Oc2ccc(Cl)cc2Cl)cc1` (stereo not given) registered a logP of 4.62. The same measure, in the same setting: for `CCCOC(=O)CCC(=O)OCCC` the value was 2.16; for `CC(C)(C)C(=O)OCn1ncc2c(O)ncnc21`, 1.07. In turn, `Cc1cccc(C)c1C` returned a solubility of 0.626 mM (≈ 75.2 µg/mL).

Staying with this series, now noted: 20 °C.
With `CCSCC`, the solubility amounted to 34.7 mM (≈ 3130 µg/mL). `COc1cc(C(Cl)(Cl)Cl)cc(Cl)n1` yielded a solubility of 0.0433 mM (≈ 11.3 µg/mL). For the molecule `O=C(O)c1ccccn1`, the solubility stood at 7800 mM (≈ 960000 µg/mL). The same measure, in the same setting: the same measure for `CN(C)c1ccncc1`: 622 mM (≈ 76000 µg/mL); for `ClCCOCCCl`: 120 mM (≈ 17200 µg/mL).

Still in this series, the particulars now being: 23 °C.
As to `CCC(C#N)CC#N` (stereo not given), the solubility turned out to be 203 mM (≈ 22000 µg/mL).

The series is the same for the next values; noted with them: 23.0 °C.
Take `CCOCCOCCO`: the log10 OH rate constant (cm³/molecule/s) is -10.2. Take `CCC(C)(O)CC(C)C` (stereo not given): the log10 OH rate constant (cm³/molecule/s) is -10.9.

`CCOC(=O)C(C)O` (stereo not given) showed a log10 OH rate constant (cm³/molecule/s) of -11.4. The molecule `CC1=CC[C@@]23CC1C(C)(C)[C@@H]2CC[C@H]3C` yielded a log10 OH rate constant (cm³/molecule/s) of -10.2.

Still in this series, the particulars now being: 24 °C.
`N#CSCSc1nc2ccccc2s1` had a solubility of 0.524 mM (≈ 125 µg/mL). The same measure, in the same setting: for `COc1cc(C=O)cc(Cl)c1O` the value was 1.33 mM (≈ 249 µg/mL).

The same series, now with this note: 25 °C.
As for `CCN(CC)c1ccccc1`, the solubility was found to be 0.938 mM (≈ 140 µg/mL).

Consider `O=C1C2(Cl)C3(Cl)C4(Cl)C(Cl)(Cl)C5(Cl)C3(Cl)C1(Cl)C5(Cl)C24Cl` (stereo not given), for which the solubility was determined as 0.0055 mM (≈ 2.7 µg/mL). As to `Nc1ccc(Cl)cc1`, the solubility turned out to be 30.6 mM (≈ 3900 µg/mL). On the same count and under the same terms, the same measure for `CCOC(=O)COc1cc(Cl)c(Cl)cc1Cl`: 0.0141 mM (≈ 4.01 µg/mL); for `CCc1ccccc1O`: 43.7 mM (≈ 5340 µg/mL). Take `O=[N+]([O-])c1c2ccccc2cc2ccccc12`: the solubility amounted to 0.000511 mM (≈ 0.114 µg/mL). On to `c1ccc2c(c1)ccc1c3ccccc3ccc21`, for which the solubility came to 8.76e-06 mM (≈ 0.002 µg/mL). Same read-out and setting: the same measure for `CCOP(=S)(OCC)SCSC(C)(C)C`: 0.0176 mM (≈ 5.07 µg/mL).

In turn, `CC1(C)C2CC3OC3(C)C1C2` (stereo not given) had a solubility of 2.55 mM (≈ 388 µg/mL). As for `C=C(C)C(=C)C`, the solubility came to 3.97 mM (≈ 327 µg/mL). As to `CCCCO[N+](=O)[O-]`, the solubility was 9.4 mM (≈ 1120 µg/mL).

Take `CCC1CO1` (stereo not given): the solubility stood at 1040 mM (≈ 75000 µg/mL). On the same count and under the same terms, for `CCCCCCCCCCCCN` the value was 0.421 mM (≈ 78 µg/mL); for `COCCOC(=O)c1ccccc1C(=O)OCCOC`, 30.1 mM (≈ 8500 µg/mL). The molecule `ClC1=C(Cl)C2(Cl)C3C(Cl)C(Cl)CC3C1(Cl)C2(Cl)Cl` (stereo not given) returned a solubility of 0.000137 mM (≈ 0.056 µg/mL). With `CCCCCCCCCl`, the solubility amounted to 0.0329 mM (≈ 4.89 µg/mL). Take `Nc1ccn([C@H]2CC[C@@H](CO)O2)c(=O)n1`: the solubility stood at 362 mM (≈ 76400 µg/mL).

For the molecule `Brc1ccc(Br)c(-c2cc(Br)c(Br)cc2Br)c1`, the solubility is 1.88e-07 mM (≈ 0.000103 µg/mL). For `FCCl`, the solubility was determined as 151 mM (≈ 10400 µg/mL). For the molecule `CCCc1ccccc1`, the solubility came to 0.434 mM (≈ 52.2 µg/mL).

Still in this series, the particulars now being: 25.0 °C.
`CC12CCC(CC1)C(C)(C)O2`: the log10 OH rate constant (cm³/molecule/s) is -11. For the molecule `CSC(=O)N(C)C`, the log10 OH rate constant (cm³/molecule/s) was -10.9. The same measure, in the same setting: the same measure for `CCCC(C)=O`: -11.3; for `FC(F)OC(Cl)C(F)(F)F` (stereo not given): -13.8; for `CC(C)OCCO`: -10.7. As to `O=CC(F)F`, the log10 OH rate constant (cm³/molecule/s) is -11.8. As for `CCCCl`, the log10 OH rate constant (cm³/molecule/s) is -12.

Still in this series, the particulars now being: 27.0 °C.
As for `Oc1ccccc1O`, the log10 OH rate constant (cm³/molecule/s) was -9.98.

Staying with this series, now noted: 30 °C.
`BrC(Br)(Br)Br` returned a solubility of 0.724 mM (≈ 240 µg/mL). The molecule `ClC(Cl)c1ccccc1` showed a solubility of 1.55 mM (≈ 250 µg/mL).
